#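 Five compound concentrations were applied to cells in 96-well plates for 48 hours; endpoints were derived by simple linear interpolation of the resulting dose-response curve. Definition used: TGI = concentration required for complete inhibition of growth.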
# What was measured:
# Experiment in all cases: NCI tumour cell line growth inhibition, 48 h
# [1] = system: A498 renal
# [2] = system: ACHN renal
# [3] = system: CAKI-1 renal
# [4] = system: COLO 205 colon
# [5] = system: DLD-1 colon
# [6] = system: DMS 114 small cell lung
# [7] = system: EKVX NSCLC
# [8] = system: HCC-2998 colon
# [9] = system: HCT-15 colon
# [10] = system: HOP-62 NSCLC
# [11] = system: K-562 leukemia
# [12] = system: KM20L2 colon
# [13] = system: LOX IMVI melanoma
# [14] = system: LXFL 529 NSCLC
# [15] = system: M14 melanoma
# [16] = system: M19-MEL melanoma
# [17] = system: NCI-H460 lung
# [18] = system: NCI-H522 lung
# [19] = system: OVCAR-4 ovarian
# [20] = system: OVCAR-5 ovarian
# [21] = system: RPMI-8226 leukemia
# [22] = system: RXF 393 renal
# [23] = system: SF-268 CNS
# [24] = system: SK-MEL-28 melanoma
# [25] = system: SK-MEL-5 melanoma
# [26] = system: SK-OV-3 ovarian
# [27] = system: SR leukemia
# [28] = system: SW-620 colon
# [29] = system: TK-10 renal
# [30] = system: U251 CNS
# [31] = system: UACC-257 melanoma
# [32] = system: UACC-62 melanoma
# [33] = system: UO-31 renal
# [34] = system: 786-0 renal
# [35] = system: A549 NSCLC
# [36] = system: CCRF-CEM leukemia
# [37] = system: DMS 273 small cell lung
# [38] = system: HCT-116 colon
# [39] = system: HL-60(TB) leukemia
# [40] = system: HOP-18 NSCLC
# [41] = system: HOP-92 NSCLC
# [42] = system: HT29 colon
# [43] = system: IGROV1 ovarian
# [44] = system: KM12 colon
# [45] = system: MALME-3M melanoma
# [46] = system: MOLT-4 leukemia
# [47] = system: NCI-H226 lung
# [48] = system: NCI-H23 lung
# [49] = system: OVCAR-3 ovarian
# [50] = system: OVCAR-8 ovarian
# [51] = system: SF-295 CNS
# [52] = system: SF-539 CNS
# [53] = system: SK-MEL-2 melanoma
# [54] = system: SN12C renal
# [55] = system: SNB-19 CNS
# [56] = system: SNB-75 CNS
# [57] = system: SNB-78 CNS
smiles,measurement,setting,value
CCCCCCCCCCCCCCCC[N+](C)(C)Cc1ccc(C[N+](C)(C)CCCCCCCCCCCCCCCC)cc1,TGI,[1],> 100 µM
same,TGI,[2],> 100 µM
same,TGI,[3],> 100 µM
same,TGI,[4],> 100 µM
same,TGI,[5],> 100 µM
same,TGI,[6],5.02 µM
same,TGI,[7],> 100 µM
same,TGI,[8],> 100 µM
same,TGI,[9],> 100 µM
same,TGI,[10],> 100 µM
same,TGI,[11],8.52 µM
same,TGI,[12],> 100 µM
same,TGI,[13],6.07 µM
same,TGI,[14],> 100 µM
same,TGI,[15],> 100 µM
same,TGI,[16],> 100 µM
same,TGI,[17],8.71 µM
same,TGI,[18],> 22.4 µM
same,TGI,[19],> 100 µM
same,TGI,[20],4.67 µM
same,TGI,[21],> 100 µM
same,TGI,[22],3.27 µM
same,TGI,[23],> 100 µM
same,TGI,[24],7.57 µM
same,TGI,[25],> 100 µM
same,TGI,[26],5.27 µM
same,TGI,[27],> 100 µM
same,TGI,[28],> 100 µM
same,TGI,[29],> 100 µM
same,TGI,[30],3.82 µM
same,TGI,[31],> 100 µM
same,TGI,[32],> 100 µM
same,TGI,[33],> 100 µM
O=C(CCN1CCCCC1CCO)Nc1ccc2c(c1)C(=O)c1ccc(NC(=O)CCN3CCCCC3CCO)cc1C2=O (stereo unspecified),TGI,[34],5.54 µM
same,TGI,[1],8.45 µM
same,TGI,[35],41.1 µM
same,TGI,[2],24.9 µM
same,TGI,[3],57.5 µM
same,TGI,[36],> 100 µM
same,TGI,[4],10.4 µM
same,TGI,[5],14.9 µM
same,TGI,[6],14.7 µM
same,TGI,[37],12.5 µM
same,TGI,[7],27 µM
same,TGI,[8],> 100 µM
same,TGI,[38],14.7 µM
same,TGI,[9],24.6 µM
same,TGI,[39],19 µM
same,TGI,[40],8.41 µM
same,TGI,[10],21.4 µM
same,TGI,[41],31 µM
same,TGI,[42],20.6 µM
same,TGI,[43],18.9 µM
same,TGI,[11],> 100 µM
same,TGI,[44],9.87 µM
same,TGI,[12],38 µM
same,TGI,[13],13.2 µM
same,TGI,[14],5.65 µM
same,TGI,[16],74.9 µM
same,TGI,[45],10.9 µM
same,TGI,[46],39.1 µM
same,TGI,[47],22.1 µM
same,TGI,[48],40.3 µM
same,TGI,[17],20.4 µM
same,TGI,[18],5.32 µM
same,TGI,[49],9.03 µM
same,TGI,[19],45.4 µM
same,TGI,[20],61.2 µM
same,TGI,[50],15.1 µM
same,TGI,[21],31.8 µM
same,TGI,[22],6.46 µM
same,TGI,[23],25.4 µM
same,TGI,[51],33.9 µM
same,TGI,[52],7.89 µM
same,TGI,[53],7.27 µM
same,TGI,[24],23.5 µM
same,TGI,[25],21.5 µM
same,TGI,[26],22.6 µM
same,TGI,[54],16 µM
same,TGI,[55],26.2 µM
same,TGI,[56],9.83 µM
same,TGI,[57],20.1 µM
same,TGI,[27],29.3 µM
same,TGI,[28],9.88 µM
same,TGI,[29],14.6 µM
same,TGI,[30],14.9 µM
same,TGI,[31],20.6 µM
same,TGI,[32],13.9 µM
same,TGI,[33],> 100 µM
COc1nc(OC)c2c(=O)oc(-c3ccccc3)cc2n1,TGI,[34],> 100 µM
same,TGI,[35],> 100 µM
same,TGI,[2],> 100 µM
same,TGI,[3],> 100 µM
same,TGI,[6],> 100 µM
same,TGI,[37],> 100 µM
same,TGI,[7],> 100 µM
same,TGI,[8],> 100 µM
same,TGI,[38],> 100 µM
same,TGI,[9],> 100 µM
same,TGI,[41],> 100 µM
same,TGI,[42],> 100 µM
same,TGI,[43],> 100 µM
same,TGI,[11],> 100 µM
same,TGI,[44],> 100 µM
same,TGI,[12],> 100 µM
same,TGI,[14],> 100 µM
same,TGI,[16],> 100 µM
same,TGI,[45],> 100 µM
same,TGI,[46],> 100 µM
same,TGI,[47],> 100 µM
same,TGI,[48],> 100 µM
same,TGI,[18],> 100 µM
same,TGI,[19],> 100 µM
same,TGI,[20],> 100 µM
same,TGI,[50],> 100 µM
same,TGI,[21],> 100 µM
same,TGI,[22],> 100 µM
same,TGI,[23],> 100 µM
same,TGI,[51],> 100 µM
same,TGI,[52],> 100 µM
same,TGI,[53],> 100 µM
same,TGI,[24],> 100 µM
same,TGI,[25],> 100 µM
same,TGI,[26],> 100 µM
same,TGI,[54],> 100 µM
same,TGI,[55],> 100 µM
same,TGI,[56],> 100 µM
same,TGI,[57],> 100 µM
same,TGI,[27],> 100 µM
same,TGI,[28],> 100 µM
same,TGI,[29],> 100 µM
same,TGI,[30],> 100 µM
same,TGI,[31],> 100 µM
same,TGI,[32],> 100 µM
same,TGI,[33],> 100 µM
CCOC(C)OCC#CCCBr (stereo unspecified),TGI,[34],> 100 µM
same,TGI,[35],> 100 µM
same,TGI,[2],> 100 µM
same,TGI,[3],> 100 µM
same,TGI,[36],> 100 µM
same,TGI,[4],> 100 µM
same,TGI,[5],> 100 µM
same,TGI,[6],> 100 µM
same,TGI,[37],> 100 µM
same,TGI,[7],> 100 µM
same,TGI,[8],> 100 µM
same,TGI,[38],> 100 µM
same,TGI,[9],> 100 µM
same,TGI,[39],> 100 µM
same,TGI,[40],> 100 µM
same,TGI,[10],> 100 µM
same,TGI,[42],> 100 µM
same,TGI,[43],> 100 µM
same,TGI,[11],> 100 µM
same,TGI,[44],> 100 µM
same,TGI,[12],> 100 µM
same,TGI,[13],> 100 µM
same,TGI,[14],> 100 µM
same,TGI,[15],> 100 µM
same,TGI,[16],> 100 µM
same,TGI,[45],> 100 µM
same,TGI,[46],> 100 µM
same,TGI,[48],> 100 µM
same,TGI,[17],> 100 µM
same,TGI,[49],> 100 µM
same,TGI,[19],> 100 µM
same,TGI,[20],> 100 µM
same,TGI,[50],> 100 µM
same,TGI,[21],> 100 µM
same,TGI,[22],> 100 µM
same,TGI,[23],> 100 µM
same,TGI,[51],> 100 µM
same,TGI,[52],> 100 µM
same,TGI,[53],> 100 µM
same,TGI,[25],> 100 µM
same,TGI,[26],> 100 µM
same,TGI,[54],> 100 µM
same,TGI,[55],> 100 µM
same,TGI,[56],> 100 µM
same,TGI,[57],> 100 µM
same,TGI,[28],> 100 µM
same,TGI,[29],> 100 µM
same,TGI,[30],> 100 µM
same,TGI,[31],> 100 µM
same,TGI,[32],> 100 µM
same,TGI,[33],> 100 µM

# From PubChem BioAssay (NCI)
